Data on one compound can be found in paper PMC5739345, “Identification of iridoid synthases from Nepeta species: Iridoid cyclization does not determine nepetalactone stereochemistry” (Phytochemistry, 2018).

One assay has as its target T1, ISY (C. roseus) (Catharanthus roseus, UniProt K7WDL7).
T1 construct: positive control; construct not described here; dimer 83 kDa
The assay can be described thus: end point assay, GC-MS of products. Type of assay: biochemical. The settings on record: 500 μM 8-oxogeranial, 1 mM NADPH, 200 mM MOPS pH 7.0, 100 mM NaCl, 0.5% THF, 30 °C, 3 h; positive control.

The next assay deals with T2, NcISY2 (Nepeta cataria, UniProt A0A221J5X1).
T2 construct: gene ISY2; N-terminal His-tag (pOPINF), E. coli soluBL21 (DE3), Ni-NTA and gel filtration; not fully homogeneous; dimer fraction
T2 sequence (A0A221J5X1 2-397): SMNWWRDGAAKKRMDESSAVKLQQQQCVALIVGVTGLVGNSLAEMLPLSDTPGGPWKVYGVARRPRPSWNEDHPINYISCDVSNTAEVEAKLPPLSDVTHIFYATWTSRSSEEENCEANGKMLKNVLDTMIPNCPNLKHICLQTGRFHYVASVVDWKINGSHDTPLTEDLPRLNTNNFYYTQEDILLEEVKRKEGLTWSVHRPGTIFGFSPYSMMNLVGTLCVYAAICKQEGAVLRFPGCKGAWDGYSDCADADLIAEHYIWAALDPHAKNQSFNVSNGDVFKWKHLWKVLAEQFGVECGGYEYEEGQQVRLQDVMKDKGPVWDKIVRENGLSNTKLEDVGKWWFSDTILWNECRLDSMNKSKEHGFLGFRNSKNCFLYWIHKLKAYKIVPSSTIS
The assay can be described thus: end point assay, GC-MS of products. The assay is classed as biochemical. The settings on record: 500 μM 8-oxogeranial, 1 mM NADPH, 200 mM MOPS pH 7.0, 100 mM NaCl, 0.5% THF, 0.5 μM enzyme, 30 °C, 3 h.

T1 sequence (K7WDL7 whole entry): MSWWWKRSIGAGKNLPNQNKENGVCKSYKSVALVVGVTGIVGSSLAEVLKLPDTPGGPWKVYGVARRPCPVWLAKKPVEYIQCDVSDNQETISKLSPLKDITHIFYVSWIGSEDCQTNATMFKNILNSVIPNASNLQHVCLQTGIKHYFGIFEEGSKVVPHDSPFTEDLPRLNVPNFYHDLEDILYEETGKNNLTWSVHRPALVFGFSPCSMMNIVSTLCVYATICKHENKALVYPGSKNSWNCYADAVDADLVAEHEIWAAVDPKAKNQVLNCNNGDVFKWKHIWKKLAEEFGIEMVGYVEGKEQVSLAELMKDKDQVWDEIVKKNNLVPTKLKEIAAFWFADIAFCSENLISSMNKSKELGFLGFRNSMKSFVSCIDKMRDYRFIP

As to `C/C(C=O)=C\CC/C(C)=C/C=O` [8-oxogeranial], the “end point assay, GC-MS of products” value at ISY (C. roseus) was “a positive control was conducted with ISY (C. roseus)”; at NcISY2, “the other (NcISY2 and NmISY2) has robust catalytic activity toward the 8-oxogeranial substrate”.
